Laboratory results reported in US8222295B2, “Compositions comprising polyunsaturated fatty acid monoglycerides or derivatives thereof and uses thereof” (Centre de Recherche sur les Biotechnologies Marines, priority 2007, dated 2012).
In brackets after ≈: the same amount, converted by molar mass.

Key:
[1] = system: A-549 human lung cancer cell line; test: in vitro cell viability assay (SRB) on A-549; assay type: cell-based
Method: (§1) Five consecutive dilutions with a equal volume of DMSO was performed. […] Precipitation occur at high concentration of curcumin. […] Five consecutive dilutions with a equal volume of DMSO was performed. […] The cell viability assay is performed to measure the relative cell viability status of cancer cells upon exposure to test compounds in comparison to a positive control (etoposide) and a negative control (vehicule). Adherent cells growing in 96-well plates are exposed to test compounds for 3 days (72 hours). […] All conditions are tested in triplicate. […] After the incubation time, total protein content is quantified following staining with the anionic dye sulforhodamine B (SRB). The detection of luminescence, emitted by SRB, is completed by a microplate reader. This method of detection is based upon works published by Monks et al., in Journal of the National Cancer Institute vol. 82 no. […] The amount of luminescence is directly proportional to the number of living cells in culture. […] Cells were trypsinized using 0.25% trypsine (w/v)/0.53 mM EDTA solution (Hyclone), counted and plated at densities between 1000 and 3000 cells per well in flat bottom 96-well clear plates (Becton Dickinson) in 100 μl of appropriate culture medium supplemented with fetal bovine serum (Hyclone). […] Absorbance was read at 515 nm using a 96-well plate Multiskan Spectrum luminescence reader (Thermo Electron Corporation). […]

[2] = system: PC-3 human prostate cancer cell line; test: in vitro cell viability assay (SRB) on PC-3; assay type: cell-based
Method: as §1

[3] = system: HCT-15 human colon cancer cell line; test: in vitro cell viability assay (SRB) on HCT-15; assay type: cell-based
Method: as §1

[4] = system: human monocyte THP-1 cells; test: LPS-induced TNF-α release by monocyte cells (ELISA); assay type: cell-based; conditions: 100 ng/ml of LPS, 4 hours, composition 3 10 μg/ml, curcumin 5 μg/ml
Method: Composition 3 (comprising compounds 1 and 5) at final concentration of 10 μg/ml, curcumin (5 μg/ml) and a 1:1 mixture of composition 3 ([…]) and curcumin (5 μg/ml) in DMSO (1%) was used for the in vitro assay. Composition 3 prepared according to the same procedure as previously described in Example 2)
The in vitro assay allows evaluation of the potential anti-inflammatory effects of compounds on the induced-release of pro-inflammatory mediator by monocyte cells. Typical human monocyte THP-1 cells, involved in inflammatory processes, are used in this assay. Measurement of pro-inflammatory mediator TNF-α is performed by ELISA (manufactured by R&D Systems) with artificial induction of pro-inflammatory agents by LPS (E. Coli 055:B5) during 4 hours. Known anti-inflammatory agent dexametazone was used as positive control.

[5] = human, in vivo
Method: The volunteer fasted for 12 hours prior to the study. […] Controlled amount of boiled pasta was eaten after the 4 h time point. An initial blood sample (400 μl) was collected using a lancet at a fingertip into heparin tubes followed by samples at 1, 2, 3, 4, 5, 6, 7 and 8 hour after ingestion. Plasma was separated and immediately analysed for fatty acid composition.
The AUC (calculates area under the curve for concentration vs. time data) is calculated using linear trapezoidal rule. […] In this experiment, the doses are the same. […] The relative bioavailability of compound 1 and compound 5 is calculated with the same formula:

COc1cc([C@@H]2c3cc4c(cc3[C@@H](O[C@@H]3O[C@@H]5CO[C@@H](C)O[C@H]5[C@H](O)[C@H]3O)[C@H]3COC(=O)[C@H]23)OCO4)cc(OC)c1O [etoposide]
inhibition at 294 µg/mL ([1]; A549, A-549, positive control at 294 μg/ml, read-out: growth inhibition): 100%
inhibition at 294 µg/mL ([2]; PC-3, positive control at 294 μg/ml, read-out: growth inhibition): 100%
inhibition at 294 µg/mL ([3]; HCT-15, positive control at 294 μg/ml, read-out: growth inhibition): 100%

C[C@@H]1C[C@H]2[C@@H]3CCC4=CC(=O)C=C[C@]4(C)[C@@]3(F)[C@@H](O)C[C@]2(C)[C@@]1(O)C(=O)CO [dexametazone]
TNF-α measured [4]: 125 µg/mL

CC/C=C\C/C=C\C/C=C\C/C=C\C/C=C\CCCCCC(=O)OCC(O)CO (stereo not drawn) [compound 1]
relative bioavailability of compound 1 compared to compound 5 [5]: 2.20

COc1cc(/C=C/C(=O)CC(=O)/C=C/c2ccc(O)c(OC)c2)ccc1O [curcumin]
IC50 ([1]; A549, A-549, 72 hours, SRB, concentration of the tested substance or composition, read-out: 50% growth inhibition concentration): ~100 µg/mL (≈ 271 µM)
IC50 ([2]; PC-3, 72 hours, SRB, concentration of the tested substance or composition, read-out: 50% growth inhibition concentration): ~75 µg/mL (≈ 204 µM)
IC50 ([3]; HCT-15, 72 hours, SRB, concentration of the tested substance or composition, read-out: 50% growth inhibition concentration): ~100 µg/mL (≈ 271 µM)
TNF-α measured [4]: 100 µg/mL
